Reference: patent US20220323443A1, “COMBINATION THERAPY FOR CANCER TREATMENT” (TAKEDA PHARMACEUTICAL COMPANY LIMITED, priority 2019, published 2022)
Where two headings read alike, the source gives them in different places.

Tests used:
COLO205 cancer cells = test: In vitro combination study with Compound 1, Cell Titer-Glo (ATP) cell viability, 72 h; format: cell-based, human;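 also: Ten-by-ten dose matrices of both agents in duplicate plus single-agent dilutions, luminescent ATP read-out, percent activity per well relative to DMSO vehicle wells, synergy call from these matrices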
Experimental: (§2) Each combination pair was evaluated in an individual 384-well plate which contained variable doses of both compounds as single agents, as well as two, ten-by-ten matrices (in duplicate) that contained mixtures of the two test compounds. In brief, compounds were added to the cell test plates 16 hours after cell plating and then assessed for viability 72 hours later. Continuous cultures of tumor cells were maintained under standard cell culturing conditions (i.e. in a humidified chamber set at 37° C., containing atmosphere 5% carbon dioxide). […] Seventy-two hours after compound addition, ATP levels were measured to assess cell viability. Plating densities were chosen to ensure optimal linear growth over the 72 hour period.
(§3) Compound dilution and compound delivery to the assay plates were done on HighRes Robotic System (HighRes Biosolutions, Woburn, Mass., USA) with Echo™ Liquid Handler (Labcyte, Sunnyvale, Calif., USA). […] Next, these were used for compound transfer into cell assay plates. All wells were back-filled to give a constant percentage of DMSO.
(§4) The final DMSO concentration was held constant in all wells across the plate and was maintained at less than 0.5%. […] Cells treated with vehicle (DMSO) in two rows, or single compound serial dilutions in one plate columns/row served as the untreated control and single compound controls, respectively.
(§5) Compound activity in A549, COLO205, H460, HCT116, SW48, SW620 cancer cell lines was assessed using Cell Titer-Glo® (Promega [Madison, Wis., USA]). After 72 hours incubation, the plates were treated as per package insert protocol for the Promega Luminescence ATP Detection Systems. Briefly, 25 μL of cell lysis/substrate solution (provided in kit form) was added to each well and the plate was incubated at room temperature for 10 minutes. Luminescence was measured using a PHERAstar multi-label counter (BMG Labtech [Ortenberg, Germany]) or LEADseeker (GE Healthcare Life Sciences [Piscataway, N.J., USA]).
(§6) Numerical luminescence values were analyzed to generate EC50 curves and evaluate synergy. Raw Data reader files were uploaded along with automation workfiles that defined the plate and well contents. Percent activities were calculated for each well versus plate controls.
(§7) Each plate representing a single drug combination was analyzed separately. First, the viability measurements were normalized by scaling the data so that the median of the negative controls was 0 and the median of the positive controls was 100.
(§8) For the combination analysis, a response surface model was used to describe the relationship between the normalized viability and the drug concentrations. The data were fit to the model by minimizing the residual sum of squares. Based on the fitted response surface, plots of constant viability, called isobolograms, were produced.
(§9) The Combination Index and Nonlinear Blending were used as measures of drug synergy. To calculate Combination Index the 50% isobologram (which is the dose contour that has 50% viability) was used. […] A standard procedure was created to produce a call in order to characterize the viability effects for each combination (synergy, additivity, subadditivity, or antagonism). If the Combination Index existed then these measures were used to make the call.

H460 cancer cells = test: as above; format: cell-based;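 also: Ten-by-ten dose matrices of both drugs alongside single-agent dilutions, luminescence read 72 hours after compound addition, percent activity per well versus vehicle (DMSO) plate controls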
Experimental: as §2, §3, §4, §5, §6, §7, §8, §9

HCT116 cancer cells = test: as above; format: cell-based;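 also: combination call from 10×10 dose matrices in duplicate, graded by synergy, with percent activity per well relative to DMSO vehicle controls on the same plate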
SW48 cancer cells = test: as above; format: cell-based
Experimental: as §2
Compound dilution and compound delivery to the assay plates were done on HighRes Robotic System (HighRes Biosolutions, Woburn, Mass., USA) with Echo™ Liquid Handler (Labcyte, Sunnyvale, Calif., USA). First, 384-well low dead volume (LDV) plates containing DMSO (Appendix B) and 10 mM compound stock solutions were used to create the required intermediate compound dilution plates. Next, these were used for compound transfer into cell assay plates. All wells were back-filled to give a constant percentage of DMSO.
as §4, §5, §6, §7, §8, §9

SW620 cancer cells = test: as above; format: cell-based;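 also: Ten-by-ten dose matrices of both drugs in 384-well plates, luminescent ATP read-out, synergy evaluated against single-agent and DMSO vehicle controls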
Experimental: as §2, §3, §4, §5, §6, §7, §8, §9

CALU6 (Lung) = test: In vitro combination study for selected compounds, additional cell lines; format: cell-based; conditions: drug combined with Compound 1
Experimental: (§1) In vitro anti-proliferative effects of selected compounds were tested in additional cell lines, including ovarian cancer (SKOV3) and pancreatic cancer (MIA-PACA-2) cell lines.

H-1650 (Lung) = test: as above; format: cell-based; conditions: drug combined with Compound 1
Experimental: as §1

[1] = tested on: ovarian cancer (SKOV3) cell line; test: as above; format: cell-based; conditions: drug combined with Compound 1
Experimental: as §1

[2] = tested on: PHTXS-13O human primary ovarian cancer xenografts; test: In vivo combination study, Patient Derived Xenograft; set-up: species or system mouse; conditions: for Result (combination with Compound 1, tumor growth): PHTXS-13O (170 mm^3) FIG. 4A
Experimental: To investigate in vivo antitumor activity of Compound 1 in combination with other agents, tests using Cell Derived Xenograft (CDX), Patient Derived Xenograft (PDX) and Syngeneic mouse tumor isograft model were conducted. Cells or Patient Derived Tumors were inoculated by one method of the following two methods (Method A and B) as shown Table 7.
Method A; Cells were maintained in either immune deficient nude mice or immune competent mice by subcutaneous inoculation of tumor cells at various concentrations into respected mice. Method B: Patient Derived Tumor s were maintained in nude mice by subcutaneous inoculation of tumor pieces (approx. 2×2×2 mm) into nude mice. Mice with tumor size of approximately 50 mm^3 (e.g., 40-75 mm^3) for syngeneic mouse studies or 200 mm^3 (e.g., 110-270 mm^3) for xenograft studies were randomly assigned to dose groups on the day (Day 0) before start date of dosing.
Compound 1 (crystalline form I) was suspended in 0.5 w/v % methylcellulose and administered orally to mice. Antibodies which administered in the experiment were described in Table 8.
Tumor size was measured by caliper and tumor volume was estimated using the equation V=(LW^2)/2, where L and W are tumor length and width, respectively and reported in cubic millimeters.
These values were compared across treatment groups to assess whether the differences in the trends over time were statistically significant. To compare pairs of treatment groups, the following mixed-effects linear regression model was fit to the data using the maximum likelihood method:
For synergy analyses, the observed differences in the log tumor values were used to calculate AUC values for each animal. In instances when an animal in a treatment group was removed from the study, the last observed tumor value was carried forward through all subsequent time points. The AUC for the control, or vehicle, group was calculated using the predicted values from the pairwise models described above. We defined a measure of synergy as follows:
where Ak and Bk are the k^th animal in the individual treatment groups and ABk is the k^th animal in combination treatment group. AUCcd is the model-predicted AUC for the control group and was treated as a constant with no variability. The standard error of the synergy score was calculated as the square root of the sum of squared standard errors across groups A, B, and AB. The degrees of freedom were estimated using the Welch-Satterthwaite equation. A hypothesis test was performed to determine if the synergy score differed from 0. P values were calculated by dividing the synergy score by its standard error and tested against a t-distribution (two-tailed) with the above-calculated degrees of freedom.
The effect was classified into four different categories. It was considered synergistic if the synergy score was less than 0 and additive if the synergy score wasn't statistically different from 0. If the synergy score was greater than zero, but the mean AUC for the combination was lower than the lowest mean AUC among the two single agent treatments, then the combination was sub-additive. If the synergy score was greater than zero, and the mean AUC for the combination was greater than the mean AUC for at least one of the single agent treatments, then the combination was antagonistic.

A549 cancer cells = test: In vitro combination study with Compound 1, Cell Titer-Glo (ATP) cell viability, 72 h; format: cell-based;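 also: Ten-by-ten dose matrices of the two agents in duplicate, compounds added 16 h post-plating, activity relative to DMSO vehicle wells, call reflects synergy evaluation from luminescence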
[3] = DNA damaging agent combined with Compound 1, 72 h
[4] = Table 5 drug combined with Compound 1, 72 h

O=C1[O][Pt]2([NH][C@@H]3CCCC[C@H]3[NH]2)[O]C1=O [Oxaliplatin]
Call, anti-proliferative effect of combination with Compound 1, COLO205 (COLO205 cancer cells): Synergy (key: Inconclusive: Any; Additivity: 0.7 to 1.3; Synergy: 0 to 0.7; Subadditivity: 1.3 to 2; Antagonism: >2)
Call, anti-proliferative effect of combination with Compound 1, H460 (H460 cancer cells): Additivity (key: Inconclusive: Any; Additivity: 0.7 to 1.3; Synergy: 0 to 0.7; Subadditivity: 1.3 to 2; Antagonism: >2)
Call, anti-proliferative effect of combination with Compound 1, HCT116 (HCT116 cancer cells): Additivity (key: Inconclusive: Any; Additivity: 0.7 to 1.3; Synergy: 0 to 0.7; Subadditivity: 1.3 to 2; Antagonism: >2)
Call, anti-proliferative effect of combination with Compound 1, SW48 (SW48 cancer cells): Additivity (key: Inconclusive: Any; Additivity: 0.7 to 1.3; Synergy: 0 to 0.7; Subadditivity: 1.3 to 2; Antagonism: >2)
Call, anti-proliferative effect of combination with Compound 1, SW620 (SW620 cancer cells): Synergy (key: Inconclusive: Any; Additivity: 0.7 to 1.3; Synergy: 0 to 0.7; Subadditivity: 1.3 to 2; Antagonism: >2)
In vitro combination effect with Compound 1, Lung CALU6 (CALU6 (Lung)): Additive
In vitro combination effect with Compound 1, Lung H-1650 (H-1650 (Lung)): Additive
In vitro combination effect with Compound 1, Ovary SKOV3 [1]: Additive

N.N.O=C([O-])C1(C(=O)[O-])CCC1.[Pt+2] [Carboplatin]
Call, anti-proliferative effect of combination with Compound 1, H460 (H460 cancer cells; [3]): Synergy (0 to 0.7)
Call, anti-proliferative effect of combination with Compound 1, HCT116 (HCT116 cancer cells; [3]): Synergy (0 to 0.7)
Call, anti-proliferative effect of combination with Compound 1, SW48 (SW48 cancer cells; [3]): Additivity (0.7 to 1.3)
In vitro combination effect with Compound 1, Lung CALU6 (CALU6 (Lung)): Additive
In vitro combination effect with Compound 1, Lung H-1650 (H-1650 (Lung)): Additive
Result (combination with Compound 1, tumor growth) ([2]; Compound 1 40 mg/kg once daily Day 1-14, drug 30 mg/kg intraperitoneally Days 1,5,9,13): Additive
Result (combination with Compound 1, tumor growth) ([2]; Compound 1 40 mg/kg once daily Day 1-14, drug 50 mg/kg intraperitoneally Days 1,5,9,13): Additive
Result (combination with Compound 1, tumor growth) ([2]; Compound 1 60 mg/kg once daily Day 1-14, drug 30 mg/kg intraperitoneally Days 1,5,9,13): Additive
Result (combination with Compound 1, tumor growth) ([2]; Compound 1 60 mg/kg once daily Day 1-14, drug 50 mg/kg intraperitoneally Days 1,5,9,13): Additive
antitumor activity ([2]; combined with Compound 1, PHTXS-13O human primary ovarian cancer xenografts, FIG. 4A): strong antitumor activity compared to either single treatment alone

N.N.[Cl][Pt][Cl] [Cisplatin]
Call, anti-proliferative effect of combination with Compound 1, H460 (H460 cancer cells; [3]): Synergy (0 to 0.7)
Call, anti-proliferative effect of combination with Compound 1, HCT116 (HCT116 cancer cells; [3]): Synergy (0 to 0.7)
Call, anti-proliferative effect of combination with Compound 1, SW48 (SW48 cancer cells; [3]): Additivity (0.7 to 1.3)
Call, anti-proliferative effect of combination with Compound 1, SW620 (SW620 cancer cells; [3]): Synergy (0 to 0.7)
In vitro combination effect with Compound 1, Lung CALU6 (CALU6 (Lung)): Additive
In vitro combination effect with Compound 1, Lung H-1650 (H-1650 (Lung)): Additive
In vitro combination effect with Compound 1, Ovary SKOV3 [1]: Additive

COc1cccc2c1C(=O)c1c(O)c3c(c(O)c1C2=O)C[C@@](O)(C(C)=O)C[C@@H]3O[C@H]1C[C@H](N)[C@H](O)[C@H](C)O1 [Daunorubicin]
Call, anti-proliferative effect of combination with Compound 1, A549 (A549 cancer cells): Additivity (key: Inconclusive: Any; Additivity: 0.7 to 1.3; Synergy: 0 to 0.7; Subadditivity: 1.3 to 2; Antagonism: >2)
Call, anti-proliferative effect of combination with Compound 1, COLO205 (COLO205 cancer cells): Additivity (key: Inconclusive: Any; Additivity: 0.7 to 1.3; Synergy: 0 to 0.7; Subadditivity: 1.3 to 2; Antagonism: >2)
Call, anti-proliferative effect of combination with Compound 1, H460 (H460 cancer cells): Additivity (key: Inconclusive: Any; Additivity: 0.7 to 1.3; Synergy: 0 to 0.7; Subadditivity: 1.3 to 2; Antagonism: >2)
Call, anti-proliferative effect of combination with Compound 1, HCT116 (HCT116 cancer cells): Synergy (key: Inconclusive: Any; Additivity: 0.7 to 1.3; Synergy: 0 to 0.7; Subadditivity: 1.3 to 2; Antagonism: >2)
Call, anti-proliferative effect of combination with Compound 1, SW48 (SW48 cancer cells): Additivity (key: Inconclusive: Any; Additivity: 0.7 to 1.3; Synergy: 0 to 0.7; Subadditivity: 1.3 to 2; Antagonism: >2)
Call, anti-proliferative effect of combination with Compound 1, SW620 (SW620 cancer cells): Synergy (key: Inconclusive: Any; Additivity: 0.7 to 1.3; Synergy: 0 to 0.7; Subadditivity: 1.3 to 2; Antagonism: >2)

CC(=O)O[C@H]1C(=O)[C@@]2(C)[C@H]([C@H](OC(=O)c3ccccc3)[C@]3(O)C[C@H](OC(=O)[C@H](O)[C@@H](NC(=O)c4ccccc4)c4ccccc4)C(C)=C1C3(C)C)[C@]1(OC(C)=O)CO[C@@H]1C[C@@H]2O [Paclitaxel]
In vitro combination effect with Compound 1, Lung CALU6 (CALU6 (Lung)): Additive
In vitro combination effect with Compound 1, Lung H-1650 (H-1650 (Lung)): Antagonism

COC1=CC(c2cc3ccccc3[nH]2)=N/C1=C\c1[nH]c(C)cc1C [Obatoclax]
Call, anti-proliferative effect of combination with Compound 1, A549 (A549 cancer cells; [4]): Additivity (0.7 to 1.3)
Call, anti-proliferative effect of combination with Compound 1, COLO205 (COLO205 cancer cells; [4]): Additivity (0.7 to 1.3)
Call, anti-proliferative effect of combination with Compound 1, H460 (H460 cancer cells; [4]): Synergy (0 to 0.7)
Call, anti-proliferative effect of combination with Compound 1, HCT116 (HCT116 cancer cells; [4]): Additivity (0.7 to 1.3)
Call, anti-proliferative effect of combination with Compound 1, SW48 (SW48 cancer cells; [4]): Additivity (0.7 to 1.3)
Call, anti-proliferative effect of combination with Compound 1, SW620 (SW620 cancer cells; [4]): Synergy (0 to 0.7)

Nc1ncn([C@@H]2O[C@H](CO)[C@@H](O)[C@H]2O)c(=O)n1 [Azacitidine]
Call, anti-proliferative effect of combination with Compound 1, A549 (A549 cancer cells; [4]): Additivity (0.7 to 1.3)
Call, anti-proliferative effect of combination with Compound 1, COLO205 (COLO205 cancer cells; [4]): Additivity (0.7 to 1.3)
Call, anti-proliferative effect of combination with Compound 1, H460 (H460 cancer cells; [4]): Additivity (0.7 to 1.3)
Call, anti-proliferative effect of combination with Compound 1, HCT116 (HCT116 cancer cells; [4]): Additivity (0.7 to 1.3)
Call, anti-proliferative effect of combination with Compound 1, SW48 (SW48 cancer cells; [4]): Additivity (0.7 to 1.3)
Call, anti-proliferative effect of combination with Compound 1, SW620 (SW620 cancer cells; [4]): Additivity (0.7 to 1.3)
